Results from US20200187502A1, “MICROBIOCIDAL OXADIAZOLE DERIVATIVES” (SYNGENTA PARTICIPATIONS AG, priority 2017, published 2020).

Experiments:
[1] = test system: Glomerella lacenarium (Colletotrichum lacenarium); assay: Fungicidal activity, liquid culture, cucumber preventative (anthracnose); format: cell-based; conditions: 20 ppm in the applied formulation, liquid culture in PDB, inhibition of growth measured photometrically 3 to 4 days after application, compared to untreated control, read-out: disease control
Method in brief: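 Photometric read-out of fungal growth 3 to 4 days after application, expressed as percent control relative to untreated wells. Plates held at 24 °C. Compound placed in DMSO before adding PDB broth seeded with conidia from cryogenic storage.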

[2] = test system: Puccinia recondita f. Sp. Tritici; assay: Fungicidal activity, wheat leaf disc curative (brown rust); format: in vivo; conditions: foliar, 200 ppm in the applied formulation, wheat leaf segments cv. Kanzler, curative (applied 1 day after inoculation), compared to untreated control, 6 to 8 days after application, read-out: disease control
Method in brief: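 Compound applied 1 day after spore inoculation of wheat cv. Kanzler leaf segments on agar (dark, 19 °C, 75% RH before treatment). After further incubation under 12 h light/12 h dark at 19 °C and 75% RH, disease control relative to untreated segments rated 6–8 days post-application.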

Phakopsora pachyrhizi = assay: Fungicidal activity, soybean leaf disc preventative (Asian soybean rust); format: in vivo; conditions: foliar, 200 ppm in the applied formulation, soybean leaf disks, compared to untreated control, 12 to 14 days after application, read-out: disease control
Description: Leaf disks or leaf segments of various plant species are cut from plants grown in a greenhouse. The cut leaf disks or segments are placed in multiwell plates (24-well format) onto water agar. The leaf disks are sprayed with a test solution before (preventative) or after (curative) inoculation. Compounds to be tested are prepared as DMSO solutions (max. 10 mg/ml) which are diluted to the appropriate concentration with 0.025% Tween20 just before spraying. The inoculated leaf disks or segments are incubated under defined conditions (temperature, relative humidity, light, etc.) according to the respective test system. A single evaluation of disease level is carried out 3 to 14 days after inoculation, depending on the pathosystem. Percent disease control relative to the untreated check leaf disks or segments is then calculated.
Soybean leaf disks are placed on water agar in multiwell plates (24-well format) and sprayed with the formulated test compound diluted in water. One day after application leaf discs are inoculated by spraying a spore suspension on the lower leaf surface. After an incubation period in a climate cabinet of 24-36 hours in darkness at 20° C. and 75% rh leaf disc are kept at 20° C. with 12 h light/day and 75% rh. The activity of a compound is assessed as percent disease control compared to untreated when an appropriate level of disease damage appears in untreated check leaf disks (12 to 14 days after application).
The following compounds at 200 ppm in the applied formulation give at least 80% disease control in this test when compared to untreated control leaf disks under the same conditions, which show extensive disease development.

[3] = test system: Puccinia recondita f. Sp. Tritici; assay: Fungicidal activity, wheat leaf disc preventative (brown rust); format: in vivo; conditions: foliar, 200 ppm in the applied formulation, wheat leaf segments cv. Kanzler, compared to untreated control, 7 to 9 days after application, read-out: disease control
Method in brief: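 Preventative leaf-segment test: spray application of diluted formulated compound on wheat cv. Kanzler, spore inoculation after 1 day. Percent control relative to untreated segments rated 7 to 9 days post-application, with incubation at 19° C, 75% relative humidity, 12 h photoperiod.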

COC(C)C(=O)N(Cc1ccc(-c2noc(C(F)(F)F)n2)s1)OC (stereo not shown) [Compound 1.1, N,2-dimethoxy-N-[[5-[5-(trifluoromethyl)-1,2,4-oxadiazol-3-yl]-2-thienyl]methyl]propanamide]
≥ 80%: inhibition of growth at 20 ppm [1] | pest or weed control at 200 ppm [2] | pest or weed control at 200 ppm (Phakopsora pachyrhizi) | pest or weed control at 200 ppm [3]

CON(Cc1ccc(-c2noc(C(F)(F)F)n2)s1)C(=O)C1CC1 [Compound 1.4, N-methoxy-N-[[5-[5-(trifluoromethyl)-1,2,4-oxadiazol-3-yl]-2-thienyl]methyl]cyclopropanecarboxamide]
≥ 80%: inhibition of growth at 20 ppm [1] | pest or weed control at 200 ppm [2] | pest or weed control at 200 ppm (Phakopsora pachyrhizi) | pest or weed control at 200 ppm [3]

CON(Cc1ccc(-c2noc(C(F)(F)F)n2)s1)C(=O)CNC(C)=O [Compound 1.7, 2-acetamido-N-methoxy-N-[[5-[5-(trifluoromethyl)-1,2,4-oxadiazol-3-yl]-2-thienyl]methyl]acetamide]
≥ 80%: inhibition of growth at 20 ppm [1] | pest or weed control at 200 ppm [2] | pest or weed control at 200 ppm (Phakopsora pachyrhizi) | pest or weed control at 200 ppm [3]

CON(Cc1ccc(-c2noc(C(F)(F)F)n2)s1)C(=O)C1CC1(F)F (stereo not shown) [Compound 1.8, 2,2-difluoro-N-methoxy-N-[[5-[5-(trifluoromethyl)-1,2,4-oxadiazol-3-yl]-2-thienyl]methyl]cyclopropanecarboxamide]
≥ 80%: inhibition of growth at 20 ppm [1] | pest or weed control at 200 ppm [2] | pest or weed control at 200 ppm (Phakopsora pachyrhizi) | pest or weed control at 200 ppm [3]

COCC(=O)N(Cc1ccc(-c2noc(C(F)(F)F)n2)s1)OC [Compound 1.9, N,2-dimethoxy-N-[[5-[5-(trifluoromethyl)-1,2,4-oxadiazol-3-yl]-2-thienyl]methyl]acetamide]
≥ 80%: inhibition of growth at 20 ppm [1] | pest or weed control at 200 ppm [2] | pest or weed control at 200 ppm (Phakopsora pachyrhizi) | pest or weed control at 200 ppm [3]

CON(Cc1ccc(-c2noc(C(F)(F)F)n2)s1)C(=O)C1CCOC1 (stereo not shown) [Compound 1.10, N-methoxy-N-[[5-[5-(trifluoromethyl)-1,2,4-oxadiazol-3-yl]-2-thienyl]methyl]tetrahydrofuran-3-carboxamide]
≥ 80%: inhibition of growth at 20 ppm [1] | pest or weed control at 200 ppm [2] | pest or weed control at 200 ppm (Phakopsora pachyrhizi) | pest or weed control at 200 ppm [3]

COCCC(=O)N(Cc1ccc(-c2noc(C(F)(F)F)n2)s1)OC [Compound 1.11, N,3-dimethoxy-N-[[5-[5-(trifluoromethyl)-1,2,4-oxadiazol-3-yl]-2-thienyl]methyl]propanamide]
≥ 80%: inhibition of growth at 20 ppm [1] | pest or weed control at 200 ppm [2] | pest or weed control at 200 ppm (Phakopsora pachyrhizi) | pest or weed control at 200 ppm [3]

CCC(=O)N(Cc1ccc(-c2noc(C(F)(F)F)n2)s1)OC [Compound 1.12, N-methoxy-N-[[5-[5-(trifluoromethyl)-1,2,4-oxadiazol-3-yl]-2-thienyl]methyl]propanamide]
≥ 80%: inhibition of growth at 20 ppm [1] | pest or weed control at 200 ppm [2] | pest or weed control at 200 ppm (Phakopsora pachyrhizi) | pest or weed control at 200 ppm [3]

CON(Cc1ccc(-c2noc(C(F)(F)F)n2)s1)C(=O)C1CCC1 [Compound 1.13, N-methoxy-N-[[5-[5-(trifluoromethyl)-1,2,4-oxadiazol-3-yl]-2-thienyl]methyl]cyclobutanecarboxamide]
≥ 80%: inhibition of growth at 20 ppm [1] | pest or weed control at 200 ppm [2] | pest or weed control at 200 ppm (Phakopsora pachyrhizi) | pest or weed control at 200 ppm [3]

CON(Cc1ccc(-c2noc(C(F)(F)F)n2)s1)C(=O)C1CC1C (stereo not shown) [Compound 1.14, N-methoxy-2-methyl-N-[[5-[5-(trifluoromethyl)-1,2,4-oxadiazol-3-yl]-2-thienyl]methyl]cyclopropanecarboxamide]
≥ 80%: inhibition of growth at 20 ppm [1] | pest or weed control at 200 ppm [2] | pest or weed control at 200 ppm (Phakopsora pachyrhizi) | pest or weed control at 200 ppm [3]

CON(Cc1ccc(-c2noc(C(F)(F)F)n2)s1)C(=O)C(C)C [Compound 1.26, N-methoxy-2-methyl-N-[[5-[5-(trifluoromethyl)-1,2,4-oxadiazol-3-yl]-2-thienyl]methyl]propanamide]
≥ 80%: inhibition of growth at 20 ppm [1] | pest or weed control at 200 ppm (Phakopsora pachyrhizi) | pest or weed control at 200 ppm [3]

CC(=O)NCC(=O)NCc1ccc(-c2noc(C(F)(F)F)n2)s1 [Compound 2.2, 2-acetamido-N-[[5-[5-(trifluoromethyl)-1,2,4-oxadiazol-3-yl]-2-thienyl]methyl]acetamide]
≥ 80%: pest or weed control at 200 ppm (Phakopsora pachyrhizi)

CCN(Cc1ccc(-c2noc(C(F)(F)F)n2)s1)C(=O)COC [Compound 4.22, N-ethyl-2-methoxy-N-[[5-[5-(trifluoromethyl)-1,2,4-oxadiazol-3-yl]-2-thienyl]methyl]acetamide]
≥ 80%: inhibition of growth at 20 ppm [1] | pest or weed control at 200 ppm (Phakopsora pachyrhizi) | pest or weed control at 200 ppm [3]

CCN(Cc1ccc(-c2noc(C(F)(F)F)n2)s1)C(=O)CC(F)(F)F [Compound 4.30, N-ethyl-3,3,3-trifluoro-N-[[5-[5-(trifluoromethyl)-1,2,4-oxadiazol-3-yl]-2-thienyl]methyl]propanamide]
≥ 80%: inhibition of growth at 20 ppm [1] | pest or weed control at 200 ppm [2] | pest or weed control at 200 ppm (Phakopsora pachyrhizi)

CCN(Cc1ccc(-c2noc(C(F)(F)F)n2)s1)C(C)=O [Compound 4.31, N-ethyl-N-[[5-[5-(trifluoromethyl)-1,2,4-oxadiazol-3-yl]-2-thienyl]methyl]acetamide]
≥ 80%: inhibition of growth at 20 ppm [1] | pest or weed control at 200 ppm (Phakopsora pachyrhizi) | pest or weed control at 200 ppm [3]

CCC(=O)N(Cc1ccc(-c2noc(C(F)(F)F)n2)s1)C(C)C [Compound 4.46, N-isopropyl-N-[[5-[5-(trifluoromethyl)-1,2,4-oxadiazol-3-yl]-2-thienyl]methyl]propanamide]
≥ 80%: inhibition of growth at 20 ppm [1] | pest or weed control at 200 ppm [2] | pest or weed control at 200 ppm (Phakopsora pachyrhizi)

CC(=O)N(Cc1ccc(-c2noc(C(F)(F)F)n2)s1)C(C)C [Compound 4.51, N-isopropyl-N-[[5-[5-(trifluoromethyl)-1,2,4-oxadiazol-3-yl]-2-thienyl]methyl]acetamide]
≥ 80%: inhibition of growth at 20 ppm [1] | pest or weed control at 200 ppm [2] | pest or weed control at 200 ppm (Phakopsora pachyrhizi)

CN(Cc1ccc(-c2noc(C(F)(F)F)n2)s1)C(=O)N1CCCO1 [Compound 5.56, N-methyl-N-[[5-[5-(trifluoromethyl)-1,2,4-oxadiazol-3-yl]-2-thienyl]methyl]isoxazolidine-2-carboxamide]
≥ 80%: inhibition of growth at 20 ppm [1] | pest or weed control at 200 ppm (Phakopsora pachyrhizi) | pest or weed control at 200 ppm [3]

CCN(Cc1ccc(-c2noc(C(F)(F)F)n2)s1)S(=O)(=O)CCOC [Compound 6.12, N-ethyl-2-methoxy-N-[[5-[5-(trifluoromethyl)-1,2,4-oxadiazol-3-yl]-2-thienyl]methyl]ethanesulfonamide]
≥ 80%: inhibition of growth at 20 ppm [1] | pest or weed control at 200 ppm (Phakopsora pachyrhizi) | pest or weed control at 200 ppm [3]

CCN(Cc1ccc(-c2noc(C(F)(F)F)n2)s1)S(=O)(=O)CC [Compound 6.14, N-ethyl-N-[[5-[5-(trifluoromethyl)-1,2,4-oxadiazol-3-yl]-2-thienyl]methyl]ethanesulfonamide]
≥ 80%: inhibition of growth at 20 ppm [1] | pest or weed control at 200 ppm (Phakopsora pachyrhizi)

CCN(Cc1ccc(-c2noc(C(F)(F)F)n2)s1)S(=O)(=O)N(C)C [Compound 6.18, N-(dimethylsulfamoyl)-N-[[5-[5-(trifiuoromethyl)-1,2,4-oxadiazol-3-yl]-2-thienyl]methyl]ethanamine]
≥ 80%: inhibition of growth at 20 ppm [1] | pest or weed control at 200 ppm (Phakopsora pachyrhizi) | pest or weed control at 200 ppm [3]

CCCS(=O)(=O)N(CC)Cc1ccc(-c2noc(C(F)(F)F)n2)s1 [Compound 6.20, N-ethyl-N-[[5-[5-(trifluoromethyl)-1,2,4-oxadiazol-3-yl]-2-thienyl]methyl]propane-1-sulfonamide]
≥ 80%: inhibition of growth at 20 ppm [1] | pest or weed control at 200 ppm (Phakopsora pachyrhizi) | pest or weed control at 200 ppm [3]

CN(Cc1ccc(-c2noc(C(F)(F)F)n2)s1)S(=O)(=O)Cc1ccccc1 [Compound 6.22, N-methyl-1-phenyl-N-[[5-[5-(trifluoromethyl)-1,2,4-oxadiazol-3-yl]-2-thienyl]methyl]methanesulfonamide]
≥ 80%: inhibition of growth at 20 ppm [1] | pest or weed control at 200 ppm (Phakopsora pachyrhizi) | pest or weed control at 200 ppm [3]
